Measured values as given in patent US20110207807A1, “NEW USE FOR HOMOISOFLAVONE OR A SALT THEREOF” (Catholic University Industry Academy Cooperation Foundation, priority 2008, published 2011).

Key:
IL-8 = IL-8 mRNA expression induced by PMA and A23187 in HMC-1 (real-time PCR); assay type: cell-based, human; details: HMC-1, 2 μg/mL, 50 nM PMA + 1 μM A23187, 5 hours (FIG. 6d)
Method: (§1) In order to investigate the effect of homoisoflavanone on the release of pro-inflammatory cytokines induced by phorbol 12-myristate 13-acetate and A23187 in HMC-1, 5×10^5 HMC-1 cells were inoculated on a 60-mm culture dish and cultured in IMDM containing 10% FBS for 48 hours. Then, after treating with homoisoflavanone at 2 μg/mL, the cells were treated with 50 nM phorbol 12-myristate 13-acetate and 1 μM A23187 to induce release of pro-inflammatory cytokines, and then further cultured for 5 hours.
(§2) After extracting RNA from the cells of each test group using TRIzol, cDNA was prepared by carrying out PCR using the RNA as a template. Then, the mRNA expression of IL-6 and IL-8 was measured through real-time PCR using the cDNA as template and using commercially available IL-6 and IL-8 primers. The expression level of the pro-inflammatory cytokines was compared relative to the non-treated group.

HMC-1 cells [1] = assay: Degranulation induced by PMA and A23187 in HMC-1 (transmission electron microscopy); assay type: cell-based, human; details: HMC-1, 2 μg/mL, 50 nM PMA + 1 μM A23187, 6 hours (FIG. 8a)
Method: (§3) In order to investigate the effect of homoisoflavanone on COX-2 expression induced by phorbol 12-myristate 13-acetate and A23187 in HMC-1, 1×10^5 HMC-1 cells were inoculated on a 6-well plate and cultured in IMDM containing 10% FBS for 48 hours. Then, after treating with homoisoflavanone at 2 μg/mL for 1 hour, the cells were treated with 50 nM phorbol 12-myristate 13-acetate and 1 μM A23187 to induce COX-2 expression, and then further cultured for 6 hours. Then, the cells were fixed with 2.5% glutaraldehyde and frozen with liquid nitrogen. The cells were detached from the plate by applying heat, sliced into […], attached on grids, and observed with a transmission electron microscope (TEM).

BALB/c mouse = assay: Ear edema induced by arachidonic acid in animal model; assay type: in vivo; details: topical 1 μg/10 μL homoisoflavanone or 50 μg/10 μL dexamethasone 1 h before arachidonic acid 100 mg/mL 10 μL, 1 hour after AA, vs AA control (FIG. 5a, 5b)
Method: Experiment was carried out as follows using BALB/c mouse. Test groups are as follows: non-treated group—treated not with arachidonic acid (AA) but only with acetone; control group (AA)-treated with arachidonic acid; test group A—treated with 1 μg/10 μL homoisoflavanone or 50 μg/10 μL dexamethasone as well as 100 mg/mL 10 μL arachidonic acid.
One hour before treating with arachidonic acid, 1 μg/10 μL homoisoflavanone or 50 μg/10 μL dexamethasone was applied on the front and rear parts of the ear, 5 μL each. Then, 1 hour after applying 100 mg/mL 10 μL arachidonic acid, ear thickness and weight were measured.

HMC-1 cells [2] = assay: Histamine release during degranulation of HMC-1 (histamine enzyme assay kit); assay type: cell-based, human; details: HMC-1, 2 μg/mL, 50 nM PMA + 1 μM A23187 (FIG. 8b)
Method: as §3
In order to measure histamine released during the degranulation, the cell supernatant was collected and subjected to measurement using a histamine enzyme assay kit (Cayman, USA) according to the manufacturer's instructions. First, the collected supernatant was anti-histamine derivatized and reacted with histamine-AChE tracer. Then, after washing at least 5 times followed by visualization for 60-90 minutes, absorbance was measured at 414 nm.

IL-6 = IL-6 mRNA expression induced by PMA and A23187 in HMC-1 (real-time PCR); assay type: cell-based, human; details: HMC-1, 2 μg/mL, 50 nM PMA + 1 μM A23187, 5 hours (FIG. 6c)
Method: as §1, §2

COX-2 = COX-2 expression induced by UV in human keratinocytes (Western blot); assay type: cell-based; details: HaCaT cells, 1 μg/mL, UV 100 J/m^2, 16 hours, vs UV only (FIG. 2a)
Method: In order to investigate the effect of homoisoflavanone on COX-2 expression induced by UV in human keratinocytes, HaCaT cells (5×10^5 cells) were inoculated on a 60-mm culture dish and cultured for 24 hours in DMEM containing 10% FBS.
Then, the cells were starved by culturing for 24 hours in DMEM containing 1% FBS. Then, after treating with homoisoflavanone at 1 μg/mL for 1 hour, the cells were washed 3 times with PBS and irradiated with UV at 100 J/m^2 to induce COX-2 expression. Immediately after the UV radiation, the cells were washed again with PBS and further cultured for 16 hours in DMEM containing 1% FBS, while treating with homoisoflavanone at the same concentration.
Thereafter, Western blotting was performed as follows in order to measure the degree of COX-2 expression in the cultured cells. The cells of each group were lysed using RIPA buffer containing 2 mM EDTA, 137 mM NaCl, 20 mM Tris-HCl (pH, 8.0), 1 mM sodium vanadate, 10 mM NaF, 1 mM phenylmethanesulfonyl fluoride (PMSF), 1% Triton X-100, 10% glycerol and a protease inhibitor cocktail, and subjected to SDS-PAGE electrophoresis on 10% acrylamide gel to separate proteins, which were then transferred to a nylon membrane and separated using goat anti-COX-2 antibody (SantaCruz, USA) and anti-goat IgG-horse radish peroxidase (HRP) conjugation antibody (1:10000, Zymed) as secondary antibody. […]

ERK = ERK phosphorylation induced by PMA and A23187 in HMC-1 (Western blot); assay type: cell-based, human; details: HMC-1, 2 μg/mL, 50 nM PMA + 1 μM A23187, 30 minutes (FIG. 7c)
Method: 1×10^6 HMC-1 cells were inoculated on a 100-mm culture dish and cultured in IMDM containing 10% FBS for 48 hours. […] Then, Western blotting was carried out in the same manner as in Example 2-1 except for using rabbit anti-p-cytosolic phospholipase A2 (cPLA2) antibody, rabbit anti-cPLA2 antibody, rabbit anti-ERK antibody and rabbit anti-p-ERK antibody (Cell Signaling) and using anti-rabbit IgG-HRP conjugation antibody (Zymed) as secondary antibody.

p38 = assay: UV-induced p38 phosphorylation in HaCaT cells (Western blot); assay type: cell-based, human; details: 1 μg/mL, UV (FIG. 2c)
Method: In order to identify the intracellular factors affecting COX-2 expression that are affected by homoisoflavanone, Western blotting was carried out in the same manner as in Example 2-1 except for treating with homoisoflavanone at 1 μg/mL, irradiating UV for 45 minutes and using rabbit anti-p-cytosolic phospholipase A2 (cPLA2) antibody, rabbit anti-cPLA2 antibody, rabbit anti-ERK antibody, rabbit anti-p-ERK antibody, rabbit anti-p38 antibody or rabbit anti-p-p38 antibody and using anti-rabbit IgG-HRP conjugation antibody (Zymed) as secondary antibody. Positive control groups were treated with 1 μM SB203580 (A.G. Scientific, Inc.) as p38 inhibitor or 10 μM PD98059 (A.G. Scientific, Inc.) as MEK 1 inhibitor instead of homoisoflavanone.

COc1ccc(CC2COc3cc(O)cc(O)c3C2=O)cc1O (stereo not drawn) [homoisoflavanone]
inhibition of release (mRNA expression) of IL-8 (IL-8): 50% | release of intracellular substances (degranulation, TEM) (HMC-1 cells [1]): inhibited | ear thickness (BALB/c mouse): decrease | ear weight (BALB/c mouse): decrease | inhibition of release of histamine (HMC-1 cells [2]): 72% | inhibition of release (mRNA expression) of IL-6 (IL-6): 50% | COX-2 expression induced by UV (COX-2): decreased | ERK phosphorylation (ERK): no effect | phosphorylation of p38 (p38): inhibited
